This note sets out measurements from the supplement of paper PMC6580486.

One assay relates to PCB490-4 (human epithelioid sarcoma primary culture). On the procedure:
(§1)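 Roche open-access kinase inhibitor screen (223 compounds) on human epithelioid sarcoma primary cultures from three spatially distinct regions of tumor PCB490. 384-well plates, 72 h, CellTiter-Glo viability; IC50 by Hill curve fit. 100000 nM = no IC50 reached. Compound ids carry a plate-well prefix, which is stripped.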

The subject of a further assay is PCB490-3 (human epithelioid sarcoma primary culture). The protocol:
as §1

A further assay concerns PCB490-5 (human epithelioid sarcoma primary culture). The protocol:
as §1

Molecules are shown by their SMILES.

With `Nc1c(C(=O)c2cccc(C#CCO)c2)cnn1-c1ccc(F)cc1`, the IC50 cell viability with PCB490-4, with PCB490-3 and in the assay with PCB490-5 was more than 100 µM each time.

Regarding `CS(=O)(=O)CCCn1c(=O)c(Oc2ccc(F)cc2F)cc2cnc(NC3CCOCC3)nc21`, the IC50 cell viability in the assay with PCB490-4, in the assay with PCB490-3 and with PCB490-5 was more than 100 µM each time.

For the compound `Cn1cc(C2=C(c3cn(CCCN/C(N)=N/[N+](=O)[O-])c4ccccc34)C(=O)NC2=O)c2ccccc21`, the IC50 cell viability with PCB490-4, in the assay with PCB490-3 and with PCB490-5 was more than 100 µM in each case.

Consider `CC(=O)Nc1ccc2c(C3=C(c4cn(C)c5ccccc45)C(=O)NC3=O)cn(C)c2c1`, for which the figures for the IC50 cell viability in the assay with PCB490-4, in the assay on PCB490-3 and with PCB490-5 were 1.94 µM, more than 100 µM and more than 100 µM, respectively.

With `Cn1cc(C2=C(c3cn(C)c4ccc(OCc5ccccc5)cc34)C(=O)NC2=O)c2ccccc21`, the IC50 cell viability in the assay with PCB490-4, in the assay with PCB490-3 and in the assay on PCB490-5 was more than 100 µM each time.

In the case of `CNCC#Cc1c(F)ccc2c1/C(=C/c1[nH]ccc1OC)C(=O)N2`, the IC50 cell viability in the assay on PCB490-4 came out at 20.7 µM; with PCB490-3, 26.8 µM; with PCB490-5, 19.5 µM.

Consider `O=C1NC(=NCC(CO)c2ccccc2)S/C1=C\c1ccc2ncccc2c1` (centres undefined), for which the IC50 cell viability with PCB490-4, in the assay with PCB490-3 and with PCB490-5 was more than 100 µM each time.

As to `CC(C)Nc1ncc2cc(Oc3ccc(F)cc3F)c(=O)n(C)c2n1`, the IC50 cell viability with PCB490-4, in the assay on PCB490-3 and with PCB490-5 was more than 100 µM throughout.

For the compound `Cn1cc(C2=C(c3cn(C)c4c(N)cccc34)C(=O)NC2=O)c2ccccc21`, the IC50 cell viability in the assay with PCB490-4, with PCB490-3 and with PCB490-5 was more than 100 µM in each case.

`COc1cccc(C(=O)c2sc(Nc3ccc(N4CCN(C(C)C)CC4)cc3)nc2N)c1`: the IC50 cell viability in the assay with PCB490-4, in the assay with PCB490-3 and in the assay on PCB490-5 was more than 100 µM throughout.

As to `Cc1[nH]nc2c1N=C(c1ccccc1F)c1cc(C#N)ccc1N2`, the IC50 cell viability with PCB490-4, in the assay on PCB490-3 and in the assay with PCB490-5 was more than 100 µM each time.

For the compound `Cn1cc(C2=C(c3c4n(c5ccccc35)CCNC4)C(=O)NC2=O)c2ccccc21`, the IC50 cell viability in the assay on PCB490-4, in the assay on PCB490-3 and in the assay on PCB490-5 was more than 100 µM throughout.

Regarding `Fc1ccc(-c2c(-c3ccncc3)[nH]c3cccnc23)cc1`, the IC50 cell viability in the assay on PCB490-4, in the assay with PCB490-3 and with PCB490-5 was more than 100 µM each time.

For `Cn1cc(C2=C(c3cn(C)c4ccccc34)C(=O)NC2=O)c2ccccc21`, the IC50 cell viability in the assay with PCB490-4, with PCB490-3 and in the assay with PCB490-5 was more than 100 µM in each case.

`Cn1cc(C2=C(c3cn(CCCCCN)c4ccccc34)C(=O)NC2=O)c2ccccc21`: the IC50 cell viability in the assay on PCB490-4, in the assay on PCB490-3 and with PCB490-5 was more than 100 µM in each case.

For `Cn1cc(C2=C(c3ccc(OCC(O)CO)cc3)C(=O)NC2=O)c2ccccc21` (centres undefined), the IC50 cell viability with PCB490-4, with PCB490-3 and in the assay on PCB490-5 was more than 100 µM in each case.

For `C/C(=C1/SC(=NCc2cccs2)NC1=O)c1ccc2ncccc2c1`, the IC50 cell viability in the assay on PCB490-4, in the assay with PCB490-3 and in the assay on PCB490-5 was more than 100 µM each time.

For `O=C1NC(=N[C@@H]2C[C@H]2c2ccccc2)S/C1=C\c1ccc2ncccc2c1`, the IC50 cell viability in the assay on PCB490-4, with PCB490-3 and with PCB490-5 was more than 100 µM in each case.

As to `COc1ccccc1CCN=C1NC(=O)/C(=C/c2ccc3ncccc3c2)S1`, the IC50 cell viability with PCB490-4, in the assay on PCB490-3 and in the assay on PCB490-5 was more than 100 µM in each case.

For `Cn1c(=O)c(Oc2ccc(F)cc2F)cc2cnc(NC3CCOCC3)nc21`, the IC50 cell viability with PCB490-4, with PCB490-3 and in the assay on PCB490-5 was more than 100 µM in each case.

`COc1cccc(C2=C(c3cn(C)c4cc(F)ccc34)C(=O)NC2=O)c1`: the IC50 cell viability in the assay on PCB490-4, with PCB490-3 and in the assay with PCB490-5 was more than 100 µM throughout.

As for `O=C1NC(=N[C@H](CO)c2ccccc2)S/C1=C\c1ccc2ncccc2c1`, the IC50 cell viability with PCB490-4, in the assay on PCB490-3 and in the assay on PCB490-5 was more than 100 µM throughout.

With `Cn1cc(C2=C(c3cn(C)c4ncccc34)C(=O)NC2=O)c2ccccc21`, the IC50 cell viability with PCB490-4, with PCB490-3 and in the assay on PCB490-5 was more than 100 µM throughout.

For the compound `Cn1cc(C2=C(c3ccc4ccccc4c3)C(=O)NC2=O)c2ccccc21`, the IC50 cell viability with PCB490-4, in the assay with PCB490-3 and with PCB490-5 was more than 100 µM throughout.

For the compound `CS(=O)(=O)N1CCC(n2c(=O)c(Oc3ccc(F)cc3F)cc3cnc(NC4CCOCC4)nc32)CC1`, the IC50 cell viability with PCB490-4, in the assay on PCB490-3 and in the assay on PCB490-5 was more than 100 µM each time.

For the compound `C[C@@H](Cn1ncnn1)Nc1ncc2cc(Oc3ccc(F)cc3F)c(=O)n(C)c2n1`, the IC50 cell viability with PCB490-4, in the assay with PCB490-3 and with PCB490-5 was more than 100 µM each time.

As to `CC(C)(O)CCc1cccc(C(=O)c2cnn(-c3ccc(F)cc3)c2N)c1`, the IC50 cell viability in the assay with PCB490-4, with PCB490-3 and with PCB490-5 was more than 100 µM each time.

Consider `O=[N+]([O-])c1ccc2c(c1)C(c1ccccc1Cl)=Nc1cn[nH]c1N2`, for which the IC50 cell viability with PCB490-4, with PCB490-3 and with PCB490-5 was more than 100 µM in each case.

Take `Cc1[nH]nc2c1N=C(c1ccccc1Cl)c1cc([N+](=O)[O-])ccc1N2`: the IC50 cell viability in the assay with PCB490-4, in the assay with PCB490-3 and in the assay with PCB490-5 was more than 100 µM in each case.

In the case of `COc1ccc(OC)c(C2=C(c3cn(C)c4ccccc34)C(=O)NC2=O)c1`, the IC50 cell viability with PCB490-4, with PCB490-3 and in the assay with PCB490-5 was more than 100 µM in each case.

Take `Fc1ccc(-c2c(-c3ccncc3)[nH]c3nccnc23)cc1`: the IC50 cell viability with PCB490-4, with PCB490-3 and with PCB490-5 was more than 100 µM each time.

With `O=C1NC(=NCCc2ccc(F)cc2)S/C1=C\c1ccc2ncccc2c1`, the IC50 cell viability in the assay with PCB490-4, in the assay on PCB490-3 and with PCB490-5 was more than 100 µM in each case.

Take `COc1cc[nH]c1/C=C1\C(=O)Nc2ccc(F)c(C#C[C@@H](O)[C@@H](N)[C@@H](C)O)c21`: the IC50 cell viability in the assay on PCB490-4 was 4.44 µM; in the assay with PCB490-3, more than 100 µM; in the assay with PCB490-5, 2.07 µM.

As to `O=C1NC(=NCCc2cccc(F)c2)S/C1=C\c1ccc2ncccc2c1`, the IC50 cell viability in the assay on PCB490-4, in the assay with PCB490-3 and in the assay with PCB490-5 was more than 100 µM throughout.

Consider `Cn1cc(C2=C(c3cn(CCCO)c4ccccc34)C(=O)NC2=O)c2ccccc21`, for which the IC50 cell viability in the assay with PCB490-4, with PCB490-3 and with PCB490-5 was more than 100 µM throughout.

For the compound `Cn1cc(C2=C(c3cn(CCO)c4ccccc34)C(=O)NC2=O)c2ccccc21`, the IC50 cell viability in the assay with PCB490-4, in the assay with PCB490-3 and in the assay on PCB490-5 was more than 100 µM each time.

Regarding `Cn1cc(C2=C(c3cn(C)c4cc(Cl)ccc34)C(=O)NC2=O)c2ccccc21`, the IC50 cell viability in the assay on PCB490-4, with PCB490-3 and in the assay with PCB490-5 was more than 100 µM each time.

On to `Cc1c(C2=C(c3cn(C)c4ccccc34)C(=O)NC2=O)c2ccccc2n1C`, for which the IC50 cell viability with PCB490-4, in the assay with PCB490-3 and with PCB490-5 was more than 100 µM throughout.

Regarding `Cn1cc(C2=C(c3cccnc3)C(=O)NC2=O)c2ccccc21`, the IC50 cell viability in the assay on PCB490-4, in the assay with PCB490-3 and in the assay on PCB490-5 was more than 100 µM in each case.

For `Cn1c(=O)c(-c2ccccc2Cl)cc2cnc(NC3CCOCC3)nc21`, the IC50 cell viability in the assay on PCB490-4, in the assay with PCB490-3 and with PCB490-5 was more than 100 µM each time.

In the case of `COc1ccccc1C(=O)c1cnc(NC2CCN(S(C)(=O)=O)CC2)nc1N`, the IC50 cell viability in the assay on PCB490-4, with PCB490-3 and with PCB490-5 was more than 100 µM in each case.

With `CN1CCN(c2ccc(Nc3nc(N)c(C(=O)c4ccc5c(c4)OCCO5)s3)cc2)CC1`, the IC50 cell viability in the assay with PCB490-4, in the assay on PCB490-3 and with PCB490-5 was more than 100 µM each time.

For the compound `O=C1NC(=NCc2c(Cl)cccc2Cl)S/C1=C\c1ccc2ncccc2c1`, the IC50 cell viability with PCB490-4, in the assay on PCB490-3 and with PCB490-5 was more than 100 µM in each case.

Consider `Nc1c(C(=O)c2cccc(C#CCN3CCOCC3)c2)cnn1-c1ccc(F)cc1`, for which the IC50 cell viability with PCB490-4, in the assay with PCB490-3 and in the assay with PCB490-5 was more than 100 µM each time.

`CC(=O)N[C@@H](Cc1ccc(OP(=O)(O)O)cc1)C(=O)N[C@H]1CCC(=O)N2CCC[C@@H](C(=O)NC3CCc4ccccc43)N2C1=O` (some centres undefined): the IC50 cell viability in the assay with PCB490-4, with PCB490-3 and with PCB490-5 was more than 100 µM throughout.

Turning to `CCNC(=O)[C@@H]1CCCN2C(=O)CC[C@H](NC(=O)[C@H](Cc3ccc(OP(=O)(O)O)cc3)NC(C)=O)C(=O)N12`, the IC50 cell viability in the assay on PCB490-4, in the assay with PCB490-3 and with PCB490-5 was more than 100 µM throughout.

On to `O=C1C(c2c[nH]c3ccccc23)=C(c2c[nH]c3ccccc23)C(=O)N1O`, for which the IC50 cell viability with PCB490-4, with PCB490-3 and in the assay on PCB490-5 was more than 100 µM each time.

Take `O=c1c(Oc2ccc(F)cc2F)cc2cnc(NC3CCOCC3)nc2n1C1CCS(=O)(=O)CC1`: the IC50 cell viability in the assay with PCB490-4, in the assay with PCB490-3 and in the assay with PCB490-5 was more than 100 µM throughout.
